What was measured:
[1] = system: AMP-dependent protein kinase (AMPK); settings: U.S. Pat. No. 9,707,222; cited from earlier work
blood glucose = settings: U.S. Pat. No. 9,707,222; cited from earlier work
[2] = system: excisional full-thickness square-shaped skin wound; assay: Effect of salsolinol ointment on excisional full-thickness skin wound healing in guinea pigs; format: in vivo; settings: for recover rate of wound vs vehicle control: another experiment; for wound recovery (wound images) vs vehicle controls: FIG. 3
Procedure: Salsolinol ointments at 0.01 mg/g, 0.03 mg/g and 0.1 mg/g were prepared respectively by dissolving 0.5 mg, 1.5 mg, and 5 mg of salsoinol in 2.5 mL of glycerol (Sigma Inc., MO, USA) plus 1.0 mL of Creagel emulsifier (First Chemical, TPE, Taiwan) and 45.5 mL of distilled water. Vehicle was composed of glycerol (2.5 mL), Creagel emulsifier (1.0 mL), and distilled water (45.5 mL).
Guinea pigs were purchased and were acclimatized at a room temperature, and had free access to water. All experimental procedures were approved by and performed in compliance with the guidelines of the Institutional Animal Care and Use Committee (IACUC). All surgeries were conducted while animals were under continuous anesthesia with 4% isoflurane.
The dorsal skin was shaved and then disinfected with 10% povidone-iodine before an excisional full-thickness square-shaped skin wound (1.0×1.0 cm) was induced using a sterile wound maker. Animals were then housed alone in its cage to avoid any further wound damage.
Animals were randomly divided into six groups (n=5 or 6, each group) as follows: • (1) animals treated with salsolinol at a concentration of 0.01 mg/g (C0.01, n=6); • (2) animal treated with the vehicle (V0.01) as compared with the group C0.01; • (3) animal treated with salsolinol at a concentration of 0.03 mg/g (C0.03, n=5); • (4) animal treated with the vehicle (V0.03) as compared with the group C0.03.
The groups were administered at the same amount of the salsolinol at 0.01 mg/g, and 0.03 mg/g or the vechile at the same amount once daily and the wounds were photopictured on Day 1, Day 3, Day 5, Day 7, Day 10, and Day 14. The sizes of the wounds were analyzed using Visual Basic 6.0. The rate of wound recovery at each experimental time point is calculated by the size of the wound as compared with that of the wound at D1, wherein the rate of wound recovery at Day 1 is 1.0.
In another experiment, the wounds of the guinea pigs were treated with salsolinol at a concentration of 0.001 mg/g, 0.01 mg/g or the vehicle at the same amount once daily and the wounds were photopictured on Day 1, Day 3, Day 5, Day 7, Day 10, and Day 14. The sizes of the wounds were analyzed using Visual Basic 6.0. The recovery rate of the wound at each experimental time point was calculated by the size of the wound as compared with that of the wound at D1, wherein the recover rate of wound at Day 1 is 0.0%.

SMILES: COc1ccc(C[C@H]2c3cc(O)c(OC)cc3CCN2C)cc1O [reticuline, reference compound]
- activation of AMPK [1]: can activate
- efficacy in reducing blood glucose (blood glucose): has an efficacy in reducing blood glucose

SMILES: CC1NCCc2cc(O)c(O)cc21 (stereo not drawn) [salsolinol]
- activation of AMPK [1]: can activate
- efficacy in reducing blood glucose (blood glucose): has an efficacy in reducing blood glucose
- recover rate of wound vs vehicle control ([2]; salsolinol 0.001 mg/g (C0.001) once daily, FIG. 4): better than that of the control group
- recover rate of wound vs vehicle control ([2]; salsolinol 0.01 mg/g (C0.01) once daily, after Day 3, p<0.05, FIG. 5): significantly better
- wound healing (rate of wound recovery) vs vehicle control ([2]; salsolinol 0.01 mg/g (C0.01) once daily vs V0.01, Day 3, Day 5 and Day 7, p<0.01, FIG. 1): significantly better
- wound recovery (wound images) vs vehicle controls ([2]; salsolinol 0.01 mg/g): better than the controls
- wound healing (rate of wound recovery) vs vehicle control ([2]; salsolinol 0.03 mg/g (C0.03) once daily vs V0.03, Day 3, p<0.05, FIG. 2): significantly better
- wound recovery (wound images) vs vehicle controls ([2]; salsolinol 0.03 mg/g): better than the controls
- wound recovery (wound images) vs vehicle controls ([2]; salsolinol 0.1 mg/g): better than the controls
- wound recovery vs control groups (summary) ([2]; salsolinol at 0.001 mg/g to 0.03 mg/g, preferably 0.01 mg/g): enhanced the wound recovery
